Measured values: patent publication US12099068B2, “Biomarkers for graft-versus-host disease” (Incyte Corporation, priority 2018, dated 2024)
Several values for one entry are separate records, joined by “and”; a condition that tells them apart may be missing. Equal values may be shown once. Where no end group is shown, it is not given here.

What follows are compounds tested on subjects with aGvHD (assay: Parallel-cohort phase 1 trial, clinical response by CIBMTR response criteria at day 28). Settings: 200 mg vs 300 mg once daily (QD) + corticosteroids.
Assay type: in vivo, human
Description: A broad proteomic analysis identified predictive, prognostic, and pharmacodynamic biomarkers of response to the combination treatment.
Ten steroid-naive and eighteen steroid-refractory subjects with aGvHD were enrolled in the clinical trial. Plasma samples were collected from all 28 subjects prior to treatment (screening/baseline) and at day 28 following treatment. All subjects provided written consent prior to enrollment and sample collection. Based on the Center for International Blood and Marrow Transplant Research (CIBMTR) response criteria at day 28, subjects were separated into responders and non-responders. Responders included complete responders (CR; n=10), very good partial responders (VGPR; n=1), and partial responders (PR; n=8). Non-responders included mixed responders (n=2) and progressive disease/death (PD/Death; n=7).
(§1) Due to the limited sample size, steroid-naive (N=10) and steroid-refractory (N=18) patients were combined for further analysis. Broad proteomic analysis of over 1000 proteins was conducted by OLINK Proteomics (Watertown, MA) using a proximity extension assay as described by the manufacturer. Data are presented as normalized protein expression (NPX) in log 2 scale. Statistical differences were evaluated using unpaired and paired t tests, one-way […] (ANOVA), and Pearson Correlation. Significance was conferred when P<0.05.

Row | Compound | Clinical response between the two itacitinib doses
1 | N#CCC1(n2cc(-c3ncnc4[nH]ccc34)cn2)CN(C2CCN(C(=O)c3ccnc(C(F)(F)F)c3F)CC2)C1 [itacitinib, {1-{1-[3-Fluoro-2-(trifluoromethyl)isonicotinoyl]piperidin-4-yl}-3-[4-(7H-pyrrolo[2,3-d]pyrimidin-4-yl)-1H-pyrazol-1-yl]azetidin-3-yl}acetonitrile] | not significantly different

Same assay, conditions: combination with corticosteroids; steroid naïve and refractory aGvHD patients

Row | Compound | overall responses
2 | N#CCC1(n2cc(-c3ncnc4[nH]ccc34)cn2)CN(C2CCN(C(=O)c3ccnc(C(F)(F)F)c3F)CC2)C1 [itacitinib, {1-{1-[3-Fluoro-2-(trifluoromethyl)isonicotinoyl]piperidin-4-yl}-3-[4-(7H-pyrrolo[2,3-d]pyrimidin-4-yl)-1H-pyrazol-1-yl]azetidin-3-yl}acetonitrile] | improved overall responses

The compounds below were run on plasma proteins (assay: Plasma proteins modulated between baseline and day 28 in responders (CR, VGPR, PR; n = 19), Example 6 (Table 13)). Settings: plasma protein (OLINK NPX); responders (CR, VGPR, PR; n = 19); itacitinib 200 mg or 300 mg QD with corticosteroids; day 28 vs baseline.
Assay type: in vivo, human
Protocol: as §1
Longitudinal differences in protein expression were analyzed by evaluating plasma samples from baseline/screening and day 28.

Row | Compound | Fold Change, Decreased Expression from Baseline to Day 28 | Fold Change, Increased Expression from Baseline to Day 28
3 | ADGRG1 | −1.1823 | 
4 | ADM |  | 1.2035
5 | ANXA11 | −1.3456 | 
6 | APP | −1.5208 | 
7 | ARHGEF12 | −1.8347 | 
8 | ARSB | −1.3432 | 
9 | AXIN1 | −1.8046 | 
10 | CA13 | −1.8816 | 
11 | CBL | −1.7183 | 
12 | CCL11 |  | 1.2818 and 1.3146
13 | CD27 | −1.6873 | 
14 | CD38 | −1.4181 | 
15 | CLEC1B | −1.7033 | 
16 | COL4A1 | −1.2699 | 
17 | CXCL5 | −1.7254 | 
18 | DECR1 | −1.4327 | 
19 | DEFA1 | −1.9173 | 
20 | DKN1A | −1.4302 | 
21 | DNAJB1 | −1.7332 | 
22 | DSC2 | −1.3652 | 
23 | EIF4G1 | −1.5969 | 

Row | Compound | Fold Change, Decreased Expression from Baseline to Day 28 | Fold Change, Increased Expression from Baseline to Day 28
24 | ERBB2 |  | 1.1968
25 | EZR |  | 1.1031
26 | FABP2 |  | 3.5893
27 | FGR | −1.4406 | 
28 | FKBP1B | −1.9994 | 
29 | FURIN |  | 1.2365
30 | GAL (GWTLNSAGYLLGPHAVGNHRSFSDKNGLTS; Galanin; UniProt P22466 33-62, looked up) |  | 1.6888
31 | GCG |  | 1.8922
32 | Gal-3 |  | 1.3504
33 | HAVCR2 | −1.312 | 
34 | HDGF | −1.3392 | 
35 | HGF | −1.5542 | 
36 | IGF1R |  | 1.2432
37 | IGF2R |  | 1.1734
38 | IL6 |  | 2.0047 and 1.8649 and 1.7278
39 | IQGAP2 | −1.5317 | 
40 | ITGB2 | −1.6877 | 
41 | LILRA5 | −1.342 | 
42 | LTBP2 |  | 1.1874
43 | LY75 | −1.1401 | 
44 | MAP4K5 | −1.658 | 

Row | Compound | Fold Change, Decreased Expression from Baseline to Day 28 | Fold Change, Increased Expression from Baseline to Day 28
45 | MAX | −1.449 | 
46 | MCP-1 |  | 1.6302 and 1.4322
47 | METRNL |  | 1.2013
48 | MMP7 |  | 1.3986
49 | MMP-1 | −1.4112 | 
50 | MUC-16 |  | 1.6356
51 | NCAM1 |  | 1.3216
52 | NCR1 | −1.3726 | 
53 | NEMO | −1.7984 | 
54 | NMNAT1 | −1.4212 | 
55 | NRP1 | −1.1237 | 
56 | NTRK2 |  | 1.118
57 | NTRK3 |  | 1.2526
58 | PAPPA | −1.3491 | 
59 | PDGF subunit A | −1.6021 | 
60 | PECAM-1 | −1.2009 | 
61 | PIgR |  | 1.1476
62 | PLXNA4 | −1.405 | 
63 | PPP1R9B | −1.6445 | 
64 | PPY (APLEPVYPGDNATPEQMAQYAADLRRYINMLTRPRY; ends and bridges not checked; UniProt P01298 30-65, looked up) |  | 1.9703
65 | PTX3 | −1.5567 | 

Row | Compound | Fold Change, Decreased Expression from Baseline to Day 28 | Fold Change, Increased Expression from Baseline to Day 28
66 | PXN | −1.329 | 
67 | SCARA5 |  | 1.1342
68 | SCF |  | 1.4714 and 1.3943 and 1.4058
69 | SIGLEC1 | −1.3842 | 
70 | STIP1 | −1.2812 | 
71 | Siglec-9 | −1.1514 | 
72 | THBS2 |  | 1.0963
73 | THBS4 | −1.7307 | 
74 | THPO |  | 1.867
75 | TIMP1 | −1.2337 | 
76 | TNC | −1.6915 | 
77 | TNXB | −1.156 | 
78 | TOP2B | −1.7634 | 
79 | TPSAB1 | −1.9835 | 
80 | TRIM5 | −1.4743 | 
81 | TXNDC5 | −1.4081 | 
82 | VSIG4 | −1.5046 | 
83 | YES1 | −1.9824 | 

Same assay, conditions: responders (CR, VGPR, PR; N=19); baseline to day 28

Row | Compound | proteins significantly elevated | proteins significantly reduced | total proteins significantly modulated by treatment
84 | N#CCC1(n2cc(-c3ncnc4[nH]ccc34)cn2)CN(C2CCN(C(=O)c3ccnc(C(F)(F)F)c3F)CC2)C1 [itacitinib, {1-{1-[3-Fluoro-2-(trifluoromethyl)isonicotinoyl]piperidin-4-yl}-3-[4-(7H-pyrrolo[2,3-d]pyrimidin-4-yl)-1H-pyrazol-1-yl]azetidin-3-yl}acetonitrile] | 105 | 248 | 353

These compounds were tested on plasma proteins (assay: Proteins of Table 11 stably expressed in complete responders between days 1 and 28, Example 5 (Table 12)). Settings: between baseline (Day 1) and Day 28.
Assay type: in vivo, human
Protocol: as §1

Row | Compound | proteins from Table 11 that did not modulate in complete responders
85 | N#CCC1(n2cc(-c3ncnc4[nH]ccc34)cn2)CN(C2CCN(C(=O)c3ccnc(C(F)(F)F)c3F)CC2)C1 [itacitinib, {1-{1-[3-Fluoro-2-(trifluoromethyl)isonicotinoyl]piperidin-4-yl}-3-[4-(7H-pyrrolo[2,3-d]pyrimidin-4-yl)-1H-pyrazol-1-yl]azetidin-3-yl}acetonitrile] | 89
